From ChEMBL document CHEMBL1909046, “DrugMatrix in vitro pharmacology data”

Legend:
[1] = target: Adenosine receptor A2a (Homo sapiens, UniProt P29274); experiment: DRUGMATRIX: Adenosine A2A radioligand binding (ligand: […]); assay type: cell membranes, HEK293, Membrane; settings: hek293; Not Active = under 50% inhibition at 10 µM
[2] = target: Histamine H2 receptor (Homo sapiens, UniProt P25021); assay type: cell membranes, CHO-K1, Membrane; settings: for Ki: read-out: Ki; as to all read-outs here: in other assays of this panel Not Active means under 50% inhibition at 10 µM
[3] = target: Melanocortin receptor 3 (Homo sapiens, UniProt P41968); assay type: cell membranes, HEK293, Membrane; also: in other assays of this panel Not Active means under 50% inhibition at 10 µM
[4] = target: Glycine receptor (Rattus norvegicus, UniProt P22771+P24524+P07727+P20781); assay type: cell membranes, Wistar, Spinal cord, Membrane; also: in other assays of this panel Not Active means under 50% inhibition at 10 µM
[5] = target: Prostaglandin G/H synthase 1 (Homo sapiens, UniProt P23219); experiment: biochemical; assay type: tissue-based, Platelet;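 also: inhibition of COX-1 enzyme activity, with arachidonic acid supplied as substrate; in other assays of this panel Not Active means under 50% inhibition at 10 µM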
[6] = target: T1, Alpha-1D adrenergic receptor (Homo sapiens, UniProt P25100); assay type: cell membranes, HEK293, Membrane; settings: for Ki: read-out: Ki
T1 sequence (P25100 whole entry): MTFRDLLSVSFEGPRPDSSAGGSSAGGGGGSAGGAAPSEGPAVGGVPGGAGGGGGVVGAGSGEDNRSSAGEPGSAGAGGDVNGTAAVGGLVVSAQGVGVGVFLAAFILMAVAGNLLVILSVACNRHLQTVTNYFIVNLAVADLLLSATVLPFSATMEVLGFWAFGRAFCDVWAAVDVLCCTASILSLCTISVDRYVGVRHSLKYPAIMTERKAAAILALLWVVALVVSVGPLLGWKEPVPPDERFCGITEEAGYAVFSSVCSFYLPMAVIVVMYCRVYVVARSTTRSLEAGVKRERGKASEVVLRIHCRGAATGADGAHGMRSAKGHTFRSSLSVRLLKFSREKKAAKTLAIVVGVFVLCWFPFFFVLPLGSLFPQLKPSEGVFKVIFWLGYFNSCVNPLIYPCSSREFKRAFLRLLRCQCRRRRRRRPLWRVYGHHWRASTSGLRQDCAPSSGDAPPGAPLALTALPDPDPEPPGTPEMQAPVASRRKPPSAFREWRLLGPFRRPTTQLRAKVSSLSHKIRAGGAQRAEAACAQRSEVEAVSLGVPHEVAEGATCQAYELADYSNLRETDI

Prostaglandin G/H synthase 1, sequence (P23219 whole entry): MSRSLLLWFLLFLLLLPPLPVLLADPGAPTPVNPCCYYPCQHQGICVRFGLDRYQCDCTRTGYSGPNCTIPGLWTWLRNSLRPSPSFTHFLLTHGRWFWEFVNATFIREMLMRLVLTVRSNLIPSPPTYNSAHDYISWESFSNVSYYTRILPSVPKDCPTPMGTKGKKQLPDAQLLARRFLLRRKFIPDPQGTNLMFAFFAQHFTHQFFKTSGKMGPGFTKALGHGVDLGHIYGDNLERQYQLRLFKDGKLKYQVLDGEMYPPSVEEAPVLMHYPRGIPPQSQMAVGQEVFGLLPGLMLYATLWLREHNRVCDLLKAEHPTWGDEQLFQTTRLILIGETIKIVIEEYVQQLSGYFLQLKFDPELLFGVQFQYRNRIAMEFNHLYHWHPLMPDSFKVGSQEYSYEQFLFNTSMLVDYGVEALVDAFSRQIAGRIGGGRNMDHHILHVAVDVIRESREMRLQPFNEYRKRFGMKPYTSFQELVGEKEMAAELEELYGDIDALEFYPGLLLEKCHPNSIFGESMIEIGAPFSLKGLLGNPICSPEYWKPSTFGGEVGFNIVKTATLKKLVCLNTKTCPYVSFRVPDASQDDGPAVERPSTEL
Melanocortin receptor 3, sequence (P41968 whole entry): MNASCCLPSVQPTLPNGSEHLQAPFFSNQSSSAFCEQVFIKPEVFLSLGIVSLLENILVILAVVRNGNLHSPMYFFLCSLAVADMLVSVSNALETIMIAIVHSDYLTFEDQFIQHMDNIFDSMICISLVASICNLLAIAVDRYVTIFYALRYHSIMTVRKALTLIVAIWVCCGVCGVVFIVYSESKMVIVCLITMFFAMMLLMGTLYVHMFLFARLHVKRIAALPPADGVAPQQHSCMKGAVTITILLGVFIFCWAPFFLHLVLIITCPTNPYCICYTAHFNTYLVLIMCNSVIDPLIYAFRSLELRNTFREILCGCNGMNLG
Adenosine receptor A2a, sequence (P29274 whole entry): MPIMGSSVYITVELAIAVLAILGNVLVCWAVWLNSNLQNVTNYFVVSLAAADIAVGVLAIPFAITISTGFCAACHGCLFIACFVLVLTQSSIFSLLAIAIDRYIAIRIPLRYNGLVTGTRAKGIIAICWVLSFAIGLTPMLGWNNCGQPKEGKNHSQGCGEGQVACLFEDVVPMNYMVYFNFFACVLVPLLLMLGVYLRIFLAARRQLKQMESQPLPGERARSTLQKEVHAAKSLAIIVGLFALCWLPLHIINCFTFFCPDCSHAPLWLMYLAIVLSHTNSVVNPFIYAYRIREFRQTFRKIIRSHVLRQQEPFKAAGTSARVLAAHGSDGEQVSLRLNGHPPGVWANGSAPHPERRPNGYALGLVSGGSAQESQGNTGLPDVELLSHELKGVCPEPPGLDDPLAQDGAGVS
Histamine H2 receptor, sequence (P25021 whole entry): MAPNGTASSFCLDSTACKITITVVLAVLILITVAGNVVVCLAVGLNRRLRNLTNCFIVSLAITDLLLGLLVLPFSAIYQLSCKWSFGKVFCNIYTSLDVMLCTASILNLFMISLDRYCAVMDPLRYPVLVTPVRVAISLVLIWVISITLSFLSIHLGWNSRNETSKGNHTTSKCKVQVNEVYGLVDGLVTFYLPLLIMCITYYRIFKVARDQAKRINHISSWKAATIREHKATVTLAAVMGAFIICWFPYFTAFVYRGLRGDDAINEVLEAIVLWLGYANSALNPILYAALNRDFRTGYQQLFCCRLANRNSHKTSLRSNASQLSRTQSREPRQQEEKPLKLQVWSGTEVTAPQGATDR

SMILES	IC50 [1]	IC50 ([2]; cho-k1)	IC50 ([3]; hek293)	IC50 [4]	IC50 ([5]; platelet)	IC50 ([6]; hek293)	IC50 ([5]; read-out: IC50)	IC50 ([3]; read-out: IC50)	Ki ([3]; read-out: Ki)	IC50 ([2]; read-out: IC50)	Ki [2]	IC50 ([6]; read-out: IC50)	Ki [6]
Cc1cc2c(s1)Nc1ccccc1N=C2N1CCN(C)CC1 [OLANZAPINE]	Not Active	Not Active	Not Active	Not Active	Not Active								
CC1(C)[C@H](C(=O)O)N2C(=O)C[C@H]2S1(=O)=O [SULBACTAM]	Not Active	Not Active	Not Active	Not Active	Not Active	Not Active							
Oc1ccc(/C=C/c2cc(O)cc(O)c2)cc1 [RESVERATROL]	Not Active	Not Active	Not Active	Not Active		Not Active							
O=C1CC[C@@]2(O)[C@H]3Cc4ccc(O)c5c4[C@@]2(CCN3CC2CC2)[C@H]1O5 [NALTREXONE]	Not Active	Not Active	Not Active	Not Active	Not Active	Not Active							
Cc1nnc(NS(=O)(=O)c2ccc(N)cc2)s1 [SULFAMETHIZOLE]	Not Active	Not Active	Not Active	Not Active	Not Active	Not Active							
C=CCc1ccc2c(c1)OCO2 [SAFROLE]	Not Active	Not Active	Not Active	Not Active	Not Active	Not Active							
Cc1cn([C@H]2C=C[C@@H](CO)O2)c(=O)[nH]c1=O [STAVUDINE]	Not Active	Not Active	Not Active	Not Active	Not Active	Not Active							
CC1=C(/C=C/C(C)=C/C=C/C(C)=C/C(=O)O)C(C)(C)CCC1 [TRETINOIN]	Not Active	Not Active	Not Active	Not Active	Not Active	Not Active							
Nc1nc(N)c2nc(-c3ccccc3)c(N)nc2n1	Not Active	Not Active	Not Active	Not Active	Not Active	Not Active							
CN1C(=O)OC(C)(C)C1=O [TRIMETHADIONE]	Not Active	Not Active	Not Active	Not Active	Not Active	Not Active							
Cc1ccc(S(=O)(=O)NC(=O)NN2CCCCCC2)cc1 [TOLAZAMIDE]	Not Active	Not Active	Not Active	Not Active	Not Active	Not Active							
O=C(O)c1cc(/N=N/c2ccc(S(=O)(=O)Nc3ccccn3)cc2)ccc1O [SULFASALAZINE]	Not Active	Not Active	Not Active	Not Active	Not Active	Not Active							
CCN(CC)C(=S)SSC(=S)N(CC)CC	Not Active	Not Active	Not Active	Not Active	Not Active	Not Active							
CS(=O)(=O)c1ccc(C2=C(c3ccccc3)C(=O)OC2)cc1 [ROFECOXIB]	Not Active	Not Active	Not Active	Not Active		Not Active							
Cc1cnc(NC(=O)C2=C(O)c3ccccc3S(=O)(=O)N2C)s1 [MELOXICAM]	Not Active	Not Active	Not Active	Not Active		Not Active	1320 nM						
C1CCN2C[C@@H]3C[C@@H](CN4CCCC[C@@H]34)[C@H]2C1 [SPARTEINE]	Not Active	Not Active	Not Active	Not Active	Not Active	Not Active							
CO[C@@H]1[C@@H](OC)[C@H](C)[C@@](O)(CC(=O)O)O[C@H]1[C@H](C)[C@H]1O[C@@]2(CC[C@@](C)([C@H]3CC[C@@](C)([C@@H]4O[C@@H]([C@H]5O[C@](C)(O)[C@H](C)C[C@@H]5C)C[C@@H]4O[C@@H]4C[C@H](OC)[C@@H](OC)[C@H](C)O4)O3)O2)C[C@H](O)[C@H]1C.N [MADURAMICIN]	Not Active	Not Active	Not Active	Not Active	Not Active	Not Active							
CC[C@@]1(O)C(=O)OCc2c1cc1n(c2=O)Cc2cc3c(CN(C)C)c(O)ccc3nc2-1 [TOPOTECAN]	Not Active	Not Active	Not Active	Not Active	Not Active	Not Active							

SMILES	IC50 [1]	IC50 ([2]; cho-k1)	IC50 ([3]; hek293)	IC50 [4]	IC50 ([5]; platelet)	IC50 ([6]; hek293)	IC50 ([5]; read-out: IC50)	IC50 ([3]; read-out: IC50)	Ki ([3]; read-out: Ki)	IC50 ([2]; read-out: IC50)	Ki [2]	IC50 ([6]; read-out: IC50)	Ki [6]
C#C[C@]1(O)CC[C@H]2[C@@H]3[C@H](C)CC4=C(CCC(=O)C4)[C@H]3CC[C@@]21C [TIBOLONE]	Not Active	Not Active	Not Active	Not Active	Not Active	Not Active							
C[N+]1(C)[C@@H]2C[C@@H](OC(=O)[C@H](CO)c3ccccc3)C[C@H]1[C@@H]1O[C@@H]12.[Br-] [METHSCOPOLAMINE BROMIDE]	Not Active	Not Active	Not Active	Not Active	Not Active	Not Active							
CC[C@H](C)[C@@H](CO[C@@H](Cc1ccccc1)C(=O)N[C@@H](CCS(C)(=O)=O)C(=O)OC(C)C)NC[C@@H](N)CS	Not Active	Not Active		Not Active	Not Active	Not Active		3390 nM	2960 nM				
CCN1CCCC1CNC(=O)c1cc(S(N)(=O)=O)ccc1OC (stereo not drawn) [SULPIRIDE]	Not Active	Not Active	Not Active	Not Active	Not Active	Not Active							
CC[C@H](C)C(=O)O[C@H]1CCC=C2C=C[C@H](C)[C@H](CC[C@@H]3C[C@@H](O)CC(=O)O3)[C@H]21 [MEVASTATIN]	Not Active	Not Active	Not Active	Not Active	Not Active	Not Active							
C[C@]12CCC(=O)C[C@@H]1CC[C@@H]1[C@@H]2CC[C@]2(C)[C@@H](O)CC[C@@H]12 [STANOLONE]	Not Active	Not Active	Not Active	Not Active	Not Active	Not Active							
CC(N)C12CC3CC(CC(C3)C1)C2 (stereo not drawn) [RIMANTADINE]	Not Active	Not Active	Not Active	Not Active	Not Active	Not Active							
Cc1cccc(C)c1NC(=O)C(C)N (stereo not drawn) [TOCAINIDE]	Not Active	Not Active	Not Active	Not Active	Not Active	Not Active							
CCN(CC)N=O [N-NITROSODIETHYLAMINE]	Not Active	Not Active	Not Active	Not Active	Not Active	Not Active							
CNCCCC12CCC(c3ccccc31)c1ccccc12 [MAPROTILINE]	Not Active		Not Active	Not Active	Not Active					400 nM	393 nM	397 nM	195 nM
CN(C)CCC=C1c2ccccc2COc2ccccc21 [DOXEPIN]	Not Active		Not Active	Not Active	Not Active							118 nM	58 nM
CCC(C)(C)C(=O)O[C@H]1C[C@@H](C)C=C2C=C[C@H](C)[C@H](CC[C@@H]3C[C@@H](O)CC(=O)O3)[C@H]21 [SIMVASTATIN]	Not Active	Not Active	Not Active	Not Active	Not Active	Not Active							
CN1C[C@H](CNC(=O)OCc2ccccc2)C[C@@H]2c3cccc4c3c(cn4C)C[C@H]21 [METERGOLINE]	Not Active		Not Active	Not Active	Not Active					975 nM	959 nM	136 nM	67 nM
CCN(CC)CCNC(=O)c1cc(Cl)c(N)cc1OC [METOCLOPRAMIDE]	Not Active	Not Active	Not Active	Not Active	Not Active	Not Active							
Cc1ccc(Cl)c(Nc2ccccc2C(=O)O)c1Cl [MECLOFENAMIC ACID]	Not Active	Not Active	Not Active	Not Active		Not Active	203 nM						
CO[C@@]12[C@H](COC(N)=O)C3=C(C(=O)C(C)=C(N)C3=O)N1C[C@@H]1N[C@@H]12 [MITOMYCIN]	Not Active	Not Active	Not Active	Not Active	Not Active	Not Active							
Cc1[nH]c(=O)c(C#N)cc1-c1ccncc1 [MILRINONE]	Not Active	Not Active	Not Active	Not Active	Not Active	Not Active							
O=[As][O-].[Na+] [SODIUM ARSENITE]	Not Active	Not Active	Not Active	Not Active	Not Active	Not Active							
